Experimental data: US20240150293A1, “SPIROCYCLOHEXANE DERIVATIVES, PHARMACEUTICAL COMPOSITIONS CONTAINING THEM AND THEIR USES AS ANTI-APOPTOTIC INHIBITORS” (LES LABORATOIRES SERVIER, priority 2021, published 2024)

What follows are compounds tested against Mcl-1 protein (UniProtKB Q07820) (Homo sapiens (Human), UniProt Q07820) (assay: Inhibition of Mcl-1 by the fluorescence polarisation assay (Example A, Method A)). Settings: fluorescence polarization assay.
Type: binding
How it was run: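 Protein (5 nM) and fluorescein-tagged peptide tracer (1 nM) incubated with 11-point compound series for 2 h at room temperature in HEPES/NaCl/Tween 20 buffer, pH 7.4, 5% DMSO. Displacement read as decrease in polarisation; IC50 fitted by 4-parameter logistic, converted to Ki (cKi or eKi).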

Mcl-1 protein, sequence (Q07820 whole entry): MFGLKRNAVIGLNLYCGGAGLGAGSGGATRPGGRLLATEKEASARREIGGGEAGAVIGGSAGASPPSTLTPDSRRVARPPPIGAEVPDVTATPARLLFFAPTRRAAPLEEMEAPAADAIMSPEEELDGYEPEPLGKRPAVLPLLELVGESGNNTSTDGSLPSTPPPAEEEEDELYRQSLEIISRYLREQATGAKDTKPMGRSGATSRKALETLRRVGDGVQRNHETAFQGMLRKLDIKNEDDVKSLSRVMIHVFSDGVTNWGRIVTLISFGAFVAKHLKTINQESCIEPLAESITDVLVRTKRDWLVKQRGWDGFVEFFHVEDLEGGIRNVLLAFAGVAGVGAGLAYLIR

**Q.** `O=C(O)[C@]1(Nc2cccc(Cl)c2)CC[C@]2(CC1)C(c1ccc(OCc3ccncc3)cc1)=Cc1ccccc12` [Example 349, (1s,4s)-4-(3-chloroanilino)-2′-{4-[(pyridin-4-yl)methoxy]phenyl}spiro[cyclohexane-1,1′-indene]-4-carboxylic acid] was tested. Which Ki did it give?
**A.** 3590 nM

**Q.** Which Ki does the source give for `Cc1ccc(S(=O)(=O)N2Cc3ccccc3C23CCC(Nc2cccc(Cl)c2)(C(=O)O)CC3)cc1` (single isomer, unassigned) [Example 29, 4-(3-chloroanilino)-2′-(4-methylbenzene-1-sulfonyl)-2′,3′-dihydrospiro[cyclohexane-1,1′-isoindole]-4-carboxylic acid] here?
**A.** 15800 nM

**Q.** Which Ki does the source give for `O=C(O)[C@]1(Nc2cccc(Br)c2)CC[C@@]2(CC1)c1ccccc1CC2CCc1ccccn1` (stereo partly shown) [Example 175, (1r,4r)-4-(3-bromoanilino)-2′-[2-(pyridin-2-yl)ethyl]-2′,3′-dihydrospiro[cyclohexane-1,1′-indene]-4-carboxylic acid] here?
**A.** 1540 nM

**Q.** With `O=C(O)[C@]1(Nc2cccc(Cl)c2)CC[C@]2(CC1)C(COCCc1ccccc1Cl)=Cc1ccccc12` [Example 419, (1s,4s)-4-(3-chloroanilino)-2′-{[2-(2-chlorophenyl)ethoxy]methyl}spiro[cyclohexane-1,1′-indene]-4-carboxylic acid] as the compound, how does the Ki read?
**A.** 300 nM

**Q.** With `C[C@@H](COc1ccnc(N)c1)C[C@H]1Cc2ccccc2[C@]12CC[C@@](Nc1cccc(Cl)c1)(C(=O)O)CC2` [Example 583, (1r,2′S,4S)-2′-{(2R)-3-[(2-aminopyridin-4-yl)oxy]-2-methylpropyl}-4-(3-chloroanilino)-2′,3′-dihydrospiro[cclohexane-1,1′-indene]-4-carboxylic acid] as the compound, how does the Ki read?
**A.** 191 nM

**Q.** `O=C(O)[C@]1(Nc2cccc(Cl)c2)CC[C@]2(CC1)C(c1ccsc1)=Cc1ccccc12` [Example 330, (1s,4s)-4-(3-chloroanilino)-2′-(thiophen-3-yl)spiro[cyclohexane-1,1′-indene]-4-carboxylic acid] was tested. Which Ki did it give?
**A.** 2120 nM

**Q.** With `O=C(O)[C@]1(Nc2cccc(Cl)c2)CC[C@@]2(CC1)c1ccccc1CC2[C@H]1C[C@@H]1COc1cccnc1` (single isomer, unassigned) [Example 115, (1r,4r)-4-(3-chloroanilino)-2′-[(1R*,2S*)-2-{[(pyridin-3-yl)oxy]methyl}cyclopropyl]-2′,3′-dihydrospiro[cyclohexane-1,1′-indene]-4-carboxylic acid] as the compound, how does the Ki read?
**A.** 1140 nM

**Q.** How did the Ki turn out when `Cc1cc(C2=Cc3ccccc3C23CCC(Nc2cccc(Br)c2)(C(=O)O)CC3)ccc1Cl` (single isomer, unassigned) [Example 235, 4-(3-bromoanilino)-2′-(4-chloro-3-methylphenyl)spiro[cyclohexane-1,1′-indene]-4-carboxylic acid] was run?
**A.** 136000 nM

**Q.** For `COc1ccc(CCOCC2=Cc3ccccc3[C@]23CC[C@@](Nc2cccc(Cl)c2)(C(=O)O)CC3)cc1` [Example 421, (1s,4s)-4-(3-chloroanilino)-2′-{[2-(4-methoxyphenyl)ethoxy]methyl}spiro[cyclohexane-1,1′-indene]-4-carboxylic acid], which Ki is on record?
**A.** 793 nM

**Q.** For `COc1cccc(CCOCC2=Cc3ccccc3[C@]23CC[C@@](Nc2cccc(Cl)c2)(C(=O)O)CC3)c1` [Example 418, (1s,4s)-4-(3-chloroanilino)-2′-{[2-(3-methoxyphenyl)ethoxy]methyl}spiro[cyclohexane-1,1′-indene]-4-carboxylic acid], which Ki is on record?
**A.** 648 nM

**Q.** How did the Ki turn out when `CC1=C(C(C)C)c2ccccc2[C@]12CC[C@@](Nc1cccc(Br)c1)(C(=O)O)CC2` [Example 204, (1r,4r)-4-(3-bromoanilino)-2′-methyl-3′-(propan-2-yl)spiro[cyclohexane-1,1′-indene]-4-carboxylic acid] was run?
**A.** 22400 nM

**Q.** For `O=C(O)[C@]1(Nc2cccc(Cl)c2)CC[C@]2(CC1)C(c1ccccc1)=Cc1ccccc12` [Example 305, (1s,4s)-4-(3-chloroanilino)-2′-phenylspiro[cyclohexane-1,1′-indene]-4-carboxylic acid], which Ki is on record?
**A.** 663 nM

**Q.** `C[C@H](COc1ccnc2ccsc12)CC1Cc2ccccc2[C@]12CC[C@@](Nc1cccc(Cl)c1)(C(=O)O)CC2` (stereo partly drawn) [Example 592, (1r,4S)-4-(3-chloroanilino)-2′-{(2S)-2-methyl-3-[(thieno[3,2-b]pyridin-7-yl)oxy]propyl}-2′,3′-dihydrospiro[cyclohexane-1,1′-indene]-4-carboxylic acid] was tested. Which Ki did it give?
**A.** 710 nM

**Q.** How did the Ki turn out when `O=C(O)[C@]1(Nc2cccc(Br)c2)CC[C@@]2(CC1)c1ccccc1CC2CCc1cccnc1` (stereo partly shown) [Example 164, (1r,4r)-4-(3-bromoanilino)-2′-[2-(pyridin-3-yl)ethyl]-2′,3′-dihydrospiro[cyclohexane-1,1′-indene]-4-carboxylic acid] was run?
**A.** 600 nM

**Q.** With `Nc1cc(Cl)c(OCCCC2Cc3ccccc3[C@]23CC[C@@](Nc2cccc(Cl)c2)(C(=O)O)CC3)c(Cl)c1` (stereo partly shown) [Example 429, (1r,4r)-2′-[3-(4-amino-2,6-dichlorophenoxy)propyl]-4-(3-chloroanilino)-2′,3′-dihydrospiro[cyclohexane-1,1′-indene]-4-carboxylic acid] as the compound, how does the Ki read?
**A.** 165 nM

**Q.** Which Ki does the source give for `O=C(O)[C@]1(Nc2cccc(Cl)c2)CC[C@@]2(CC1)c1ccccc1CC2Cc1ccccc1` (stereo partly shown) [Example 169, (1r,4r)-2′-benzyl-4-(3-chloroanilino)-2′,3′-dihydrospiro[cyclohexane-1,1′-indene]-4-carboxylic acid] here?
**A.** 4770 nM

**Q.** How did the Ki turn out when `CC1CCc2nccc(OCCCC3Cc4ccccc4[C@]34CC[C@@](Nc3cccc(Cl)c3)(C(=O)O)CC4)c21` (stereo partly shown) [Example 478, (1r,4r)-4-(3-chloroanilino)-2′-{3-[(5-methyl-6,7-dihydro-5H-cyclopenta[b]pyridin-4-yl)oxy]propyl}-2′,3′-dihydrospiro[cyclohexane-1,1′-indene]-4-carboxylic acid] was run?
**A.** 29.7 nM

**Q.** Which Ki does the source give for `COc1cc2c(cc1OC)[C@]1(CC[C@@](Nc3cccc(Cl)c3)(C(=O)O)CC1)C(Br)=C2` [Example 136, (1s,4s)-2′-bromo-4-(3-chloroanilino)-5′,6′-dimethoxyspiro[cyclohexane-1,1′-indene]-4-carboxylic acid] here?
**A.** 259 nM

**Q.** `O=C(O)[C@]1(Nc2cccc(Cl)c2)CC[C@]2(CC1)C(I)=Cc1ccccc12` [Example 76, (1s,4s)-4-(3-chloroanilino)-2′-iodospiro[cyclohexane-1,1′-indene]-4-carboxylic acid] was tested. Which Ki did it give?
**A.** 284 nM

**Q.** `COc1cccc(C2Cc3ccccc3[C@]23CC[C@@](Nc2cccc(Cl)c2)(C(=O)O)CC3)c1` (single isomer, unassigned) [Example 273, (1r,4r)-4-(3-chloroanilino)-2′-(3-methoxyphenyl)-2′,3′-dihydrospiro[cyclohexane-1,1′-indene]-4-carboxylic acid] was tested. Which Ki did it give?
**A.** 1720 nM

**Q.** How did the Ki turn out when `COc1ccc(C2=Cc3ccccc3[C@]23CC[C@@](Nc2cccc(Cl)c2)(C(=O)O)CC3)cc1C` [Example 225, (1s,4s)-4-(3-chloroanilino)-2′-(4-methoxy-3-methylphenyl)spiro[cyclohexane-1,1′-indene]-4-carboxylic acid] was run?
**A.** 1020 nM

**Q.** `O=C(O)C1(Nc2cccc(Br)c2)CCC2(CC1)C(c1cc(Cl)cc(Cl)c1)=Cc1ccccc12` (single isomer, unassigned) [Example 236, 4-(3-bromoanilino)-2′-(3,5-dichlorophenyl)spiro[cyclohexane-1,1′-indene]-4-carboxylic acid] was tested. Which Ki did it give?
**A.** 27100 nM

**Q.** Which Ki does the source give for `O=C(O)[C@]1(Nc2cccc(Cl)c2)CC[C@@]2(CC1)c1ccccc1C[C@@H]2C1CCC1` [Example 101, (1r,2′R,4R)-4-(3-chloroanilino)-2′-cyclobutyl-2′,3′-dihydrospiro[cyclohexane-1,1′-indene]-4-carboxylic acid] here?
**A.** 27000 nM

**Q.** For `CC1=C(C)[C@]2(CC[C@](Nc3cccc(Br)c3)(C(=O)O)CC2)c2ccccc21` [Example 202, (1r,4r)-4-(3-bromoanilino)-2′,3′-dimethylspiro[cyclohexane-1,1′-indene]-4-carboxylic acid], which Ki is on record?
**A.** 300 nM

**Q.** Which Ki does the source give for `O=C(O)[C@]1(Nc2cccnc2)CC[C@]2(CC1)C(Br)=Cc1ccccc12` [Example 87, (1s,4s)-2′-bromo-4-[(pyridin-3-yl)amino]spiro[cyclohexane-1,1′-indene]-4-carboxylic acid] here?
**A.** 4380 nM

**Q.** With `O=C(O)[C@]1(Nc2cccc(Cl)c2)CC[C@]2(CC1)C(c1cccc(OCC3CC3)c1)=Cc1ccccc12` [Example 339, (1s,4s)-4-(3-chloroanilino)-2′-[3-(cyclopropylmethoxy)phenyl]spiro[cyclohexane-1,1′-indene]-4-carboxylic acid] as the compound, how does the Ki read?
**A.** 154 nM

**Q.** `O=C(O)C1(Nc2cccc(Br)c2)CCC2(CC1)c1ccccc1CC2CCCc1ccccc1` (single isomer, unassigned) [Example 150, (1r,4r)-4-(3-bromoanilino)-2′-(3-phenylpropyl)-2′,3′-dihydrospiro[cyclohexane-1,1′-indene]-4-carboxylic acid] was tested. Which Ki did it give?
**A.** 226 nM

**Q.** `O=C(O)C1(Nc2cccc(Br)c2)CCC2(CC1)C(=O)N1CCCc3cc(Br)cc2c31` (single isomer, unassigned) [Example 14, 8′-bromo-4-(3-bromoanilino)-2′-oxo-5′,6′-dihydro-2′H,4′H-spiro[cyclohexane-1,1′-pyrrolo[3,2,1-ij]quinoline]-4-carboxylic acid] was tested. Which Ki did it give?
**A.** 5200 nM

**Q.** For `O=C(O)[C@]1(Nc2cccc(Cl)c2)CC[C@@]2(CC1)C(Br)=Cc1ccccc12` [Example 74, (1r,4r)-2′-bromo-4-(3-chloroanilino)spiro[cyclohexane-1,1′-indene]-4-carboxylic acid], which Ki is on record?
**A.** 23100 nM

**Q.** How did the Ki turn out when `Cc1cc(OCCCC2Cc3ccccc3C23CCC(Nc2cccc(Cl)c2)(C(=O)O)CC3)cc(C)c1Cl` (stereo not shown) [Example 436, (1r,4r)-4-(3-chloroanilino)-2′-[3-(4-chloro-3,5-dimethylphenoxy)propyl]-2′,3′-dihydrospiro[cyclohexane-1,1′-indene]-4-carboxylic acid] was run?
**A.** 918 nM

**Q.** Which Ki does the source give for `COc1ccc(C2=Cc3ccccc3[C@]23CC[C@](Nc2cccc(Cl)c2)(C(=O)O)CC3)cc1C` [Example 224, (1r,4r)-4-(3-chloroanilino)-2′-(4-methoxy-3-methylphenyl)spiro[cyclohexane-1,1′-indene]-4-carboxylic acid] here?
**A.** 22300 nM
